The source made the active and inactive calls. No cut-off for these calls is given here.
Assays:
[1] = target: T1, Neuronal acetylcholine receptor; alpha4/beta2 (Rattus norvegicus) (UniProt P09483+P12390); experiment: Displacement of [3H]epibatidine from alpha4beta2 nicotinic acetylcholine receptor in rat cerebral cortical membrane up to 100 uM; format: cell membranes
[2] = target: T2, Neuronal acetylcholine receptor; alpha3/beta4 (Rattus norvegicus) (UniProt P04757+P12392); experiment: Inhibition of rat alpha3beta4 nicotinic acetylcholine receptor activation expressed in HEK293 cells assessed as intracellular calcium level up to 100 uM by fluorescence assay; format: cell-based
[3] = target: T2, Neuronal acetylcholine receptor; alpha3/beta4 (Rattus norvegicus); experiment: Inhibition of rat alpha3beta4 nicotinic acetylcholine receptor activation expressed in HEK293 cells assessed as intracellular calcium level at 500 uM by fluorescence assay; format: cell-based
[4] = target: T1, Neuronal acetylcholine receptor; alpha4/beta2 (Rattus norvegicus); experiment: Displacement of [3H]epibatidine from alpha4beta2 nicotinic acetylcholine receptor in rat cerebral cortical membrane at 100 uM; format: cell membranes

**Q.** How did the Activity [1] turn out when O=C(O)[C@@H]1CCCN2CCCC[C@H]12 was run?
**A.** Its Activity is “inactive”.

**Q.** And the Activity [2]?
**A.** The Activity was “inactive”.

**Q.** What does the source list for O=[N+]([O-])[C@H]1CCCN2CCCC[C@H]12?
**A.** Activity [3]: inactive; Activity [4]: inactive

Reference: ChEMBL document CHEMBL1151978, “Epiquinamide: a poison that wasn't from a frog that was” (J Nat Prod, 2009)
